Reference: ChEMBL document CHEMBL1909046, “DrugMatrix in vitro pharmacology data”

Legend:
[1] = target: Beta-3 adrenergic receptor (Homo sapiens, UniProt P13945); experiment: DRUGMATRIX: Adrenergic beta3 radioligand binding (ligand: [125I] Cyanopindolol); type: cell membranes, HEK293, Membrane; conditions: Not Active = under 50% inhibition at 10 µM
[2] = DRUGMATRIX: Glutamate, NMDA, Agonism radioligand binding (ligand: [3H] CGP-39653); type: cell membranes, Rattus norvegicus, Wistar, Cerebral cortex, Membrane; conditions: Not Active = under 50% inhibition at 10 µM
[3] = target: T1, Type-2 angiotensin II receptor (Homo sapiens, UniProt P50052); type: cell-based; conditions: cho-k1; further: in other assays of this panel Not Active means under 50% inhibition at 10 µM
T1 sequence (P50052 whole entry): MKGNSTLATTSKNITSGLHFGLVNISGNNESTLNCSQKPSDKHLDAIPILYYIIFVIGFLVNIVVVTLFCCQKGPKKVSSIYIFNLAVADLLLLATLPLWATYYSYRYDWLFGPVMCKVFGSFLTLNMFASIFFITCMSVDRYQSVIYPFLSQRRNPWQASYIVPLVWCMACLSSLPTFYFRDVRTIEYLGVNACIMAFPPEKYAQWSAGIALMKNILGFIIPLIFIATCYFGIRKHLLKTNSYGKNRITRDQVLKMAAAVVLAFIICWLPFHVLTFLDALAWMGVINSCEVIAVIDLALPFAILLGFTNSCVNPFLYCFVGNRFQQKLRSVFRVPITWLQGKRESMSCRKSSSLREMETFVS

[4] = target: Beta-2 adrenergic receptor (Homo sapiens, UniProt P07550); experiment: DRUGMATRIX: Adrenergic beta2 radioligand binding (ligand: [3H] CGP-12177); type: cell membranes, Membrane; conditions: cho; Not Active = under 50% inhibition at 10 µM
[5] = target: D(3) dopamine receptor (Homo sapiens, UniProt P35462); experiment: DRUGMATRIX: Dopamine D3 radioligand binding (ligand: [3H] Spiperone); type: cell membranes, CHO, Membrane; conditions: cho
[6] = target: 5-hydroxytryptamine receptor 6 (Homo sapiens, UniProt P50406); type: cell membranes, HeLa, Membrane; further: in other assays of this panel Not Active means under 50% inhibition at 10 µM
5-hydroxytryptamine receptor 6, sequence (P50406 whole entry): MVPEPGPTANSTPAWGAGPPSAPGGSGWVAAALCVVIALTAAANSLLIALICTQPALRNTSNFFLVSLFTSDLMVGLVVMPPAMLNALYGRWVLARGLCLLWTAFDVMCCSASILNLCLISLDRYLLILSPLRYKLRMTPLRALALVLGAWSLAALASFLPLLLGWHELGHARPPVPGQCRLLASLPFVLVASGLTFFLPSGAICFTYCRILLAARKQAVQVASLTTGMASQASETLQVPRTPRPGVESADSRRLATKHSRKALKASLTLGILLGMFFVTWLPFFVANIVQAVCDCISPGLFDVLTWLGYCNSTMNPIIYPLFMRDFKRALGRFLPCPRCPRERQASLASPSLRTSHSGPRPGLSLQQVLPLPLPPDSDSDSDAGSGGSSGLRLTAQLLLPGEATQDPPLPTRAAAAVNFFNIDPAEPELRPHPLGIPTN

D(3) dopamine receptor, sequence (P35462 whole entry): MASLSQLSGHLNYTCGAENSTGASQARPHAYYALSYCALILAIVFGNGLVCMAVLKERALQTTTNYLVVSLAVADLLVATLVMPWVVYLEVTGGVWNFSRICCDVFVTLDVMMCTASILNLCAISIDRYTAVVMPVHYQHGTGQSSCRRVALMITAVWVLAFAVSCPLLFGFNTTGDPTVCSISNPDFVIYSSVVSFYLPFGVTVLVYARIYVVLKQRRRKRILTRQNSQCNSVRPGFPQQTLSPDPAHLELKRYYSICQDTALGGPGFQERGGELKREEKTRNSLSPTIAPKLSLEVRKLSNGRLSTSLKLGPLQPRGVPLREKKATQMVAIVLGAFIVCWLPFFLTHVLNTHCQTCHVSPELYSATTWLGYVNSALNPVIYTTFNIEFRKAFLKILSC
Beta-3 adrenergic receptor, sequence (P13945 whole entry): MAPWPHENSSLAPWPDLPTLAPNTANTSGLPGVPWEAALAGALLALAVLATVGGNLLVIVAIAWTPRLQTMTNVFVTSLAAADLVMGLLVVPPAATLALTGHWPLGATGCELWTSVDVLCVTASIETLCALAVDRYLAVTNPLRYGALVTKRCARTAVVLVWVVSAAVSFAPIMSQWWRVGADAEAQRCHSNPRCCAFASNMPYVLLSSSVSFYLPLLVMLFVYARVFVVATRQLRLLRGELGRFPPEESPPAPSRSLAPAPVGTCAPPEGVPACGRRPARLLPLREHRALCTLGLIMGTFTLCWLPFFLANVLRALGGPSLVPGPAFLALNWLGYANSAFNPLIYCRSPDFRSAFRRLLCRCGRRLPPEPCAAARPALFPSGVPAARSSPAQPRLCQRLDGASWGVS
Beta-2 adrenergic receptor, sequence (P07550 whole entry): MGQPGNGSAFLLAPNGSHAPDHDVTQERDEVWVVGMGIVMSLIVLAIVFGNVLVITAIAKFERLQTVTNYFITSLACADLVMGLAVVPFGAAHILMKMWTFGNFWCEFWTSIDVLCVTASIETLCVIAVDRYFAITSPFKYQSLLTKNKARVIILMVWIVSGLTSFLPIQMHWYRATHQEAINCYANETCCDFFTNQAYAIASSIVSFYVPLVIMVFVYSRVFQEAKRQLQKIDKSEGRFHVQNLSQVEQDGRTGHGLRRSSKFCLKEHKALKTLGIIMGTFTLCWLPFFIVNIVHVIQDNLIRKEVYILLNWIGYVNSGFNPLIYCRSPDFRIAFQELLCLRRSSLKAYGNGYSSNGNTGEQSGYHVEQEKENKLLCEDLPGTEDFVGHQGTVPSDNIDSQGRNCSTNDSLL

Row | Compound | IC50 ([1]; hek293) | IC50 [2] | Ki [2] | IC50 [3] | IC50 [4] | IC50 [5] | IC50 ([6]; hela) | Ki ([1]; hek293) | Ki [3] | Ki [4] | Ki [5] | Ki ([6]; hela) | IC50 ([1]; read-out: IC50) | Ki ([1]; read-out: Ki) | IC50 ([6]; read-out: IC50) | Ki ([6]; read-out: Ki)
1 | CC(C)CN(C[C@@H](O)[C@H](Cc1ccccc1)NC(=O)O[C@H]1CCOC1)S(=O)(=O)c1ccc(N)cc1 | Not Active | Not Active | Not Active | Not Active | Not Active | Not Active | Not Active | – | – | – | – | – | – | – | – | –
2 | c1ccc(Nc2ccc(Nc3ccccc3)cc2)cc1 | Not Active | Not Active | Not Active | Not Active | Not Active | Not Active | Not Active | – | – | – | – | – | – | – | – | –
3 | COc1cc2c3cc1Oc1cc(ccc1O)C[C@@H]1c4c(cc(OC)c(O)c4Oc4ccc(cc4)C[C@@H]3N(C)CC2)CC[N+]1(C)C.[Cl-] | Not Active | Not Active | Not Active | Not Active | Not Active | Not Active | Not Active | – | – | – | – | – | – | – | – | –
4 | NC(=O)N1c2ccccc2CCc2ccccc21 | Not Active | Not Active | Not Active | Not Active | Not Active | Not Active | Not Active | – | – | – | – | – | – | – | – | –
5 | O=C1CC[C@@H](N2C(=O)c3ccccc3C2=O)C(=O)N1 | Not Active | Not Active | Not Active | Not Active | Not Active | Not Active | Not Active | – | – | – | – | – | – | – | – | –
6 | Cc1onc(O)c1CC(N)C(=O)O (racemic) [(R,S)-AMPA] | Not Active | Not Active | Not Active | Not Active | Not Active | Not Active | Not Active | – | – | – | – | – | – | – | – | –
7 | Cc1ccc2cc3c(ccc4ccccc43)c3c2c1CC3 [3-METHYLCHOLANTHRENE] | Not Active | Not Active | Not Active | Not Active | Not Active | Not Active | Not Active | – | – | – | – | – | – | – | – | –
8 | CC[C@@]1(O)C[C@H](O[C@H]2C[C@H](N(C)C)[C@H](O[C@H]3C[C@H](O)[C@H](O[C@H]4CCC(=O)[C@H](C)O4)[C@H](C)O3)[C@H](C)O2)c2c(cc3c(c2O)C(=O)c2c(O)cccc2C3=O)[C@H]1C(=O)OC [ACLARUBICIN] | Not Active | Not Active | Not Active | Not Active | Not Active | Not Active | Not Active | – | – | – | – | – | – | – | – | –
9 | Nc1nc2c(ncn2COCCO)c(=O)[nH]1 [ACYCLOVIR] | Not Active | Not Active | Not Active | Not Active | Not Active | Not Active | Not Active | – | – | – | – | – | – | – | – | –
10 | Cc1c(C)c2c(c(C)c1O)CC[C@@](C)(CCC[C@H](C)CCC[C@H](C)CCCC(C)C)O2 [ALPHA-TOCOPHEROL] | Not Active | Not Active | Not Active | Not Active | Not Active | Not Active | Not Active | – | – | – | – | – | – | – | – | –
11 | CN(C)c1nc(N(C)C)nc(N(C)C)n1 [ALTRETAMINE] | Not Active | Not Active | Not Active | Not Active | Not Active | Not Active | Not Active | – | – | – | – | – | – | – | – | –
12 | Nc1c(Br)cc(Br)cc1CN[C@H]1CC[C@H](O)CC1 [AMBROXOL] | Not Active | Not Active | Not Active | Not Active | Not Active | Not Active | Not Active | – | – | – | – | – | – | – | – | –
13 | NCCCCCC(=O)O [AMINOCAPROIC ACID] | Not Active | Not Active | Not Active | Not Active | Not Active | Not Active | Not Active | – | – | – | – | – | – | – | – | –
14 | CCC1(c2ccc(N)cc2)CCC(=O)NC1=O (configuration not stated) [AMINOGLUTETHIMIDE] | Not Active | Not Active | Not Active | Not Active | Not Active | Not Active | Not Active | – | – | – | – | – | – | – | – | –
15 | Cc1ccc(/N=C/N(C)/C=N/c2ccc(C)cc2C)c(C)c1 [AMITRAZ] | Not Active | Not Active | Not Active | Not Active | Not Active | Not Active | Not Active | – | – | – | – | – | – | – | – | –
16 | CCOC(=O)C1=C(COCCN)NC(C)=C(C(=O)OC)C1c1ccccc1Cl (configuration not stated) [AMLODIPINE] | Not Active | Not Active | Not Active | Not Active | Not Active | Not Active | – | – | – | – | – | – | – | – | – | –
17 | COc1ccc(C[C@H]2NC[C@H](O)[C@H]2OC(C)=O)cc1 [ANISOMYCIN] | Not Active | Not Active | Not Active | Not Active | Not Active | Not Active | Not Active | Not Active | Not Active | Not Active | Not Active | Not Active | – | – | – | –

Row | Compound | IC50 ([1]; hek293) | IC50 [2] | Ki [2] | IC50 [3] | IC50 [4] | IC50 [5] | IC50 ([6]; hela) | Ki ([1]; hek293) | Ki [3] | Ki [4] | Ki [5] | Ki ([6]; hela) | IC50 ([1]; read-out: IC50) | Ki ([1]; read-out: Ki) | IC50 ([6]; read-out: IC50) | Ki ([6]; read-out: Ki)
18 | Nc1ncn([C@@H]2O[C@H](CO)[C@@H](O)[C@H]2O)c(=O)n1 [AZACITIDINE] | Not Active | Not Active | Not Active | Not Active | Not Active | Not Active | Not Active | – | – | – | – | – | – | – | – | –
19 | CN(C)C(=O)Oc1cc(OC(=O)N(C)C)cc(C(O)CNC(C)(C)C)c1 (configuration not stated) [BAMBUTEROL] | Not Active | Not Active | Not Active | Not Active | Not Active | Not Active | Not Active | – | – | – | – | – | – | – | – | –
20 | c1ccc2c(c1)c1cccc3ccc4cccc2c4c31 [BENZO[E]PYRENE] | Not Active | Not Active | Not Active | Not Active | Not Active | Not Active | Not Active | – | – | – | – | – | – | – | – | –
21 | CNCCc1ccccn1 [BETAHISTINE] | Not Active | Not Active | Not Active | Not Active | Not Active | Not Active | Not Active | – | – | – | – | – | – | – | – | –
22 | CC(C)C(Br)C(=O)NC(N)=O (configuration not stated) [BROMISOVALUM] | Not Active | Not Active | Not Active | Not Active | Not Active | Not Active | Not Active | – | – | – | – | – | – | – | – | –
23 | CCCC1O[C@@H]2C[C@H]3[C@@H]4CCC5=CC(=O)C=C[C@]5(C)[C@H]4[C@@H](O)C[C@]3(C)[C@]2(C(=O)CO)O1 (some centres not stated) [BUDESONIDE] | Not Active | Not Active | Not Active | Not Active | Not Active | Not Active | Not Active | – | – | – | – | – | – | – | – | –
24 | CC(NC(C)(C)C)C(=O)c1cccc(Cl)c1 (configuration not stated) [BUPROPION] | Not Active | Not Active | Not Active | Not Active | Not Active | Not Active | Not Active | – | – | – | – | – | – | – | – | –
25 | CN(Cc1ccc(C(C)(C)C)cc1)Cc1cccc2ccccc12 [BUTENAFINE] | Not Active | Not Active | Not Active | Not Active | Not Active | Not Active | Not Active | – | – | – | – | – | – | – | – | –
26 | C[C@H](CS)C(=O)N1CCC[C@H]1C(=O)O [CAPTOPRIL] | Not Active | Not Active | Not Active | Not Active | Not Active | Not Active | Not Active | – | – | – | – | – | – | – | – | –
27 | Cc1ccc(-c2cc(C(F)(F)F)nn2-c2ccc(S(N)(=O)=O)cc2)cc1 [CELECOXIB] | – | Not Active | Not Active | Not Active | Not Active | Not Active | Not Active | – | – | – | – | – | 16.1 µM | 12.1 µM | – | –
28 | O=C(O)CCCc1ccc(N(CCCl)CCCl)cc1 [CHLORAMBUCIL] | Not Active | Not Active | Not Active | Not Active | Not Active | Not Active | Not Active | – | – | – | – | – | – | – | – | –
29 | CN(C)CCCN1c2ccccc2Sc2ccc(Cl)cc21 [CHLORPROMAZINE] | Not Active | Not Active | Not Active | Not Active | Not Active | – | – | – | – | – | – | – | – | – | – | –
30 | CC(C)(C)NCC(O)c1cc(Cl)c(N)c(Cl)c1 (configuration not stated) [CLENBUTEROL] | Not Active | Not Active | Not Active | Not Active | – | Not Active | Not Active | – | – | – | – | – | – | – | – | –
31 | CNCCCN1c2ccccc2CCc2ccccc21 [DESIPRAMINE] | Not Active | Not Active | Not Active | Not Active | – | Not Active | Not Active | – | – | – | – | – | – | – | – | –
32 | COc1cc2nc(N3CCN(C(=O)C4COc5ccccc5O4)CC3)nc(N)c2cc1OC (configuration not stated) [DOXAZOSIN] | Not Active | Not Active | Not Active | Not Active | – | Not Active | Not Active | – | – | – | – | – | – | – | – | –
33 | COCCc1ccc(OCC(O)CNC(C)C)cc1 (configuration not stated) [METOPROLOL] | Not Active | Not Active | Not Active | Not Active | – | Not Active | Not Active | – | – | – | – | – | – | – | – | –
34 | CCCN1C[C@H](CSC)C[C@@H]2c3cccc4[nH]cc(c34)C[C@H]21 [PERGOLIDE] | Not Active | Not Active | Not Active | Not Active | Not Active | – | – | – | – | – | – | – | – | – | 0.039 µM | 0.018 µM
